Results taken from patent US20240409536A1, “COMPOUNDS AND METHODS FOR MODULATING SPLICING” (REMIX THERAPEUTICS INC., priority 2021, published 2024).

Legend:
MYB mRNA [1] = assay: Splicing RT-qPCR assay, MYB canonical (CJ) and alternative (AJ) junction mRNA; type: cell-based; conditions: Homo sapiens, A673 or K562 cells, 24 hours; for IC50: decrease in canonical junction mRNA; for AC50: increase in alternative junction mRNA
Summary of the method: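 Canonical and alternative junction mRNAs measured by cell-lysate one-step RT-qPCR, normalized to PPIA in A673 or GAPDH/GUSB in K562. Cells received compound for 24 h at 37 °C, 5% CO2, 11-point 3-fold series from 10 uM final top dose, DMSO at most 0.25%.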

HTT mRNA = assay: Gene panel canonical junction qPCR assay, HTT CJ mRNA decrease; type: cell-based, human; conditions: Homo sapiens, canonical junction qPCR, read-out: HTT IC50 (decrease in CJ mRNA levels)
Summary of the method: (§1)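 IC50 values describe loss of canonical-junction transcript, fitted by 4-parameter logistic to percent response derived from fixed ΔCt windows. Read-out: RT-qPCR on lysates of compound-treated K562 or A673 cells, probes overlapping the exon junction, ΔΔCt versus housekeeping gene and DMSO control.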

MYB mRNA [2] = assay: Gene panel canonical junction qPCR assay, MYB CJ mRNA decrease; type: cell-based, human; conditions: Homo sapiens, canonical junction qPCR, read-out: MYB IC50 (decrease in CJ mRNA levels)
Summary of the method: as §1

Compound | IC50 (MYB mRNA [1]) [nM] | IC50 (HTT mRNA) [nM] | IC50 (MYB mRNA [2]) [nM] | AC50 (MYB mRNA [1]) [nM]
Cc1cn2cc(NC(=O)c3ccc(N4CCN(C)C5(CC5)C4)c4nccnc34)cc(F)c2n1 [Compound 364] | 100 to 1000 | 100 to 1000 | 100 to 1000 | 100 to 1000
COc1nc(NC(=O)c2ccc(N3C[C@@H](C)N[C@@H](C)C3)c3nccnc23)nc2cn(C)nc12 [Compound 287] | 1000 to 10000 | > 10000 | 1000 to 10000 | > 10000
COc1cnc2c(N3CC[C@@H](N(C)C)C3)ccc(C(=O)Nc3cc(F)c4nc(C)cn4c3)c2n1 [Compound 244, 8-[(3R)-3-(dimethylamino)pyrrolidin-1-yl]-N-{8-fluoro-2-methylimidazo[1,2-a]pyridin-6-yl}-3-methoxyquinoxaline-5-carboxamide] | < 100 | 100 to 1000 | < 100 | < 100
Cc1cn2cc(NC(=O)c3ccc(N4CCC(N)(CF)CC4)c4nccnc34)cc(F)c2n1 [Compound 356] | 1000 to 10000 | 1000 to 10000 | 1000 to 10000 | 1000 to 10000
Cc1cn2cc(NC(=O)c3ccc(N4C5CNCC54)c4nccnc34)cc(F)c2n1 (stereo not drawn) [Compound 262, 8-{3,6-diazabicyclo[3.1.0]hexan-6-yl}-N-{8-fluoro-2-methylimidazo[1,2-a]pyridin-6-yl}quinoxaline-5-carboxamide] | 100 to 1000 | 100 to 1000 | 100 to 1000 | 100 to 1000
CCN1CCN(c2ccc(C(=O)Nc3cc(F)c4nc(C)cn4c3)c3nccnc23)CC12CC2 [Compound 365] | 100 to 1000 | 100 to 1000 | 100 to 1000 | 100 to 1000
C[C@@H]1CN(c2ccc(C(=O)Nc3cc(F)c4nc(O)cn4c3)c3nccnc23)C[C@H](C)N1 [Compound 360] | > 10000 | > 10000 | > 10000 | > 10000
Cc1cn2cc(NC(=O)c3ccc(N4CCN[C@@H](C5CC5)C4)c4nccnc34)cc(F)c2n1 [Compound 252, 8-[(3S)-3-cyclopropylpiperazin-1-yl]-N-{8-fluoro-2-methylimidazo[1,2-a]pyridin-6-yl}quinoxaline-5-carboxamide] | 100 to 1000 | > 10000 | 100 to 1000 | 100 to 1000
Cc1cn2cc(NC(=O)c3ccc(N4CCNCC4)c4ccnnc34)c(C)cc2n1 [Compound 119] | 1000 to 10000 | 1000 to 10000 | 1000 to 10000 | 1000 to 10000
Cc1cn2cc(NC(=O)c3ccc(N4C[C@@H](C)N[C@@H](C)C4)c4nccnc34)cc(C#N)c2n1 [Compound 294] | 100 to 1000 | 1000 to 10000 | 100 to 1000 | 100 to 1000
COc1nc2c(N3C[C@@H](C)N[C@@H](C)C3)ccc(C(=O)Nc3cc(F)c4nc(C)cn4c3)c2nc1C [Compound 260, 8-((3R,5S)-3,5-dimethylpiperazin-1-yl)-N-(8-fluoro-2-methylimidazo[1,2-a]pyridin-6-yl)-2-methoxy-3-methylquinoxaline-5-carboxamide; 2,2,2-trifluoroacetate] | 100 to 1000 | 100 to 1000 | 100 to 1000 | 100 to 1000
COc1ncc2c(N3C[C@@H](C)N[C@@H](C)C3)ccc(C(=O)Nc3cc(F)c4nc(C)cn4c3)c2n1 [Compound 300] | < 100 | 100 to 1000 | < 100 | < 100
Cc1c(O)c(NC(=O)c2ccc(N3C[C@@H](C)N[C@@H](C)C3)c3nccnc23)cc2cn(C)nc12 [Compound 310] | 100 to 1000 | > 10000 | 100 to 1000 | 100 to 1000
Cc1cn2nc(NC(=O)c3ccc(C4CCNCC4)c4ccnnc34)cc(C)c2n1 [Compound 113] | 1000 to 10000 | 1000 to 10000 | 1000 to 10000 | 100 to 1000
Cc1cn2cc(NC(=O)c3ccc(N4C[C@@H](C)N[C@@H](C)C4)c4nccnc34)nc(Cl)c2n1 [Compound 279] | < 100 | > 10000 | < 100 | 100 to 1000

Second part, led by results:

IC50 (MYB mRNA [1]) [nM] | IC50 (HTT mRNA) [nM] | IC50 (MYB mRNA [2]) [nM] | Compound | AC50 (MYB mRNA [1]) [nM]
1000 to 10000 | > 10000 | 1000 to 10000 | CNc1nc(NC(=O)c2ccc(N3C[C@@H](C)N[C@@H](C)C3)c3nccnc23)cn2cc(C)nc12 [Compound 308] | 1000 to 10000
< 100 | 1000 to 10000 | < 100 | Cc1cn2cc(NC(=O)c3ccc(N4C[C@@H](C)N[C@@H](C)C4)c4nccnc34)nc(C)c2n1 [Compound 288] | < 100
< 100 | 1000 to 10000 | < 100 | Cc1cn2cc(NC(=O)c3c(F)cc(N4C[C@@H](C)N[C@@H](C)C4)c4nccnc34)cc(F)c2n1 [Compound 261, cis-8-[(3R,5S)-3,5-dimethylpiperazin-1-yl]-6-fluoro-N-{8-fluoro-2-methylimidazo[1,2-a]pyridin-6-yl}quinoxaline-5-carboxamide] | < 100
1000 to 10000 | 1000 to 10000 | 1000 to 10000 | C[C@@H]1CN(c2ccc(C(=O)Nc3cc(F)c4cnccc4c3)c3nccnc23)C[C@H](C)N1 [Compound 343] | 1000 to 10000
< 100 | 1000 to 10000 | < 100 | CN[C@@H]1CCN(c2ccc(C(=O)Nc3cc(F)c4nc(C)cn4c3)c3nnccc23)C1 [Compound 238, (R)—N-(8-fluoro-2-methylimidazo[1,2-a]pyridin-6-yl)-5-(3-(methylamino)pyrrolidin-1-yl)cinnoline-8-carboxamide] | < 100
> 10000 | > 10000 | > 10000 | Cn1cc2c(F)cc(NC(=O)c3ccc(N4CCNCC4)c4ccnnc34)cc2n1 [Compound 116] | > 10000
> 10000 | > 10000 | > 10000 | Cc1cn2cc(NC(=O)c3ccc(N4C[C@@H](C)N[C@@H](C)C4)c4ncccc34)cc(F)c2n1 [Compound 358] | > 10000
100 to 1000 | 1000 to 10000 | 100 to 1000 | Cc1cn2cc(NC(=O)c3ccc([C@@]45CCNCC4C5)c4nccnc34)cc(F)c2n1 (stereo in doubt) [Compound 248, 8-{3-azabicyclo[4.1.0]heptan-6-yl}-N-{8-fluoro-2-methylimidazo[1,2-a]pyridin-6-yl}quinoxaline-5-carboxamide 2,2,2-trifluoroacetate] | 100 to 1000
100 to 1000 | > 10000 | 100 to 1000 | Cc1cn2cc(NC(=O)c3ccc(N4C[C@@H](C)N[C@@H](C)C4)c4nccnc34)nc2c(C)n1 [Compound 359] | 100 to 1000
100 to 1000 | 1000 to 10000 | 100 to 1000 | COc1ccc2c(N3C[C@@H](C)N[C@@H](C)C3)ccc(C(=O)Nc3cc(F)c4nc(C)cn4c3)c2n1 [Compound 268, 5-[(3R,5S)-3,5-dimethylpiperazin-1-yl]-N-{8-fluoro-2-methylimidazo[1,2-a]pyridin-6-yl}-2-methoxyquinoline-8-carboxamide] | < 100
1000 to 10000 | > 10000 | 1000 to 10000 | COc1nc2ccc(NC(=O)c3ccc(N4C[C@@H](C)N[C@@H](C)C4)c4nccnc34)cc2o1 [Compound 292] | > 10000
100 to 1000 | 100 to 1000 | 100 to 1000 | Cc1nc2c(F)cc(NC(=O)c3ccc(N4CCNCC4)c4ccnnc34)cc2s1 [Compound 118] | 100 to 1000
